Measured values taken from publication PMC4817029, “Molecular characterization of a family 5 glycoside hydrolase suggests an induced-fit enzymatic mechanism” (Scientific Reports, 2016).

Experiments:
BlCel5B [1] = target: T1, BlCel5B (Bacillus licheniformis, UniProt Q65JI7); assay: X-ray crystal structure ([…] A) after soaking with cellopentaose; type: binding; settings: crystal soaked with five times molar excess of cellopentaose for 24 h; cellotetraose from cleavage in the crystal; subsites -1 to -3 of the catalytic domain
T1 construct: gene celC; full-length trimodular enzyme (CD, Ig-like, CBM46) without signal peptide (nucleotides 1-81 removed; gene end nt 1683); E. coli Rosetta2 (DE3), pETTRXA-1a/LIC; His6 tag cut by TEV; monomer
T1 sequence (Q65JI7 entry or part of it): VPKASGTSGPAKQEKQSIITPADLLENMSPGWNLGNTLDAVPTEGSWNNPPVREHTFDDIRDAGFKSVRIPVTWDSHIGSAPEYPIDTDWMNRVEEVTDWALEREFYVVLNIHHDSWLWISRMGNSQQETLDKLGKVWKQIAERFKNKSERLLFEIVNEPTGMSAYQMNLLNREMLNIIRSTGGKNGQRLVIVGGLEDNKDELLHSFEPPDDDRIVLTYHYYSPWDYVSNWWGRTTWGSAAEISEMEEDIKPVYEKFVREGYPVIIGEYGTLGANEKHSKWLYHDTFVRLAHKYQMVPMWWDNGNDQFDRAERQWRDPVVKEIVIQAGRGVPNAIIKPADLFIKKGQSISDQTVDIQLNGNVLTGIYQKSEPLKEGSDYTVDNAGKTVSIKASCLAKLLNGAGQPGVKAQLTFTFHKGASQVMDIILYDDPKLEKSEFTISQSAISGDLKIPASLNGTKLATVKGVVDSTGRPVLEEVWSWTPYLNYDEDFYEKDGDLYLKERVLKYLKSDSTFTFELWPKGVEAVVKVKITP

BlCel5B [2] = target: T1, BlCel5B; assay: MALDI/TOF-MS product profile; type: biochemical; settings: 1.0 mM cellopentaose, 10 mM ammonium bicarbonate pH 7.0, 50 C, 90 min

SMILES	X-ray crystal structure (1.75 A) after soaking with cellopentaose (BlCel5B [1])	MALDI/TOF-MS product profile (BlCel5B [2])
OC[C@H]1O[C@@H](O[C@H]2[C@H](O)[C@@H](O)[C@H](O[C@H]3[C@H](O)[C@@H](O)[C@H](O[C@H]4[C@H](O)[C@@H](O)C(O)O[C@@H]4CO)O[C@@H]3CO)O[C@@H]2CO)[C@H](O)[C@@H](O)[C@@H]1O (some centres unmarked) [C4, cellotetraose]	Electron density maps clearly reveal the presence of a cellotetraose (C4)	
OC[C@H]1O[C@@H](O[C@H]2[C@H](O)[C@@H](O)[C@H](O[C@H]3[C@H](O)[C@@H](O)[C@H](O[C@H]4[C@H](O)[C@@H](O)[C@H](O[C@H]5[C@H](O)[C@@H](O)C(O)O[C@@H]5CO)O[C@@H]4CO)O[C@@H]3CO)O[C@@H]2CO)[C@H](O)[C@@H](O)[C@@H]1O (some centres unmarked) [C5, cellopentaose]		ability of BlCel5B to cleave C5 into glucose and C4 molecules in solution was demonstrated
